Read-outs that look alike come from different tables or passages of the source.
Tests used:
[1] = system: carbapenem-resistant P. aeruginosa strains; type: cell-based, Pseudomonas aeruginosa; settings: for susceptibility category, antibiotic alone: Table 22, WC-452; on susceptibility category, antibiotic alone: key: (R) = resistant; (S) = sensitive; on susceptibility category, imipenem alone: key: (R) = resistant; (S) = sensitive; on susceptibility category, imipenem in combination with GN121: key: (R) = resistant; (S) = sensitive; on susceptibility category, imipenem in combination with GN123: key: (R) = resistant; (S) = sensitive; on susceptibility category, meropenem alone: key: (R) = resistant; (S) = sensitive; on susceptibility category, meropenem in combination with GN123: key: (R) = resistant; (S) = sensitive
Procedure: Such resensitization may be determined by combining the present lysins or lysin-AMP polypeptide constructs with an antibiotic in a checkerboard assay as described herein. Antibiotic-resistant bacteria, such as carbapenem-resistant P. aeruginosa, are added to the lysin or lysin-AMP polypeptide construct combination. […] See Clinical and Laboratory Standards Institute (CLSI), CLSI. […] M100 Performance Standards for Antimicrobial Susceptibility Testing; 29th Edition. Clinical and Laboratory Standards Institute, Wayne, Pa., which is herein incorporated by reference in its entirety.
Up to seven carbapenem-resistant isolates were assessed. […] See Clinical and Laboratory Standards Institute (CLSI), CLSI. […] M100 Performance Standards for Antimicrobial Susceptibility Testing; 29th Edition. Clinical and Laboratory Standards Institute, Wayne, Pa.

Staphylococcus aureus = assay: Daptomycin MIC in […] (positive control); type: cell-based; settings: S. aureus
Procedure: As a positive control, the impact of […] ® on daptomycin (DAP) activity against Staphylococcus aureus was also tested.

[2] = Table 18, isolates PA19-PA24 and WC-452
[3] = Table 19, isolates PA19-PA24 and WC-452

## C[C@@H](O)[C@H]1C(=O)N2C(C(=O)O)=C(SCCN=CN)C[C@H]12 [Imipenem, imipenem]
[1]; [2]
  susceptibility category, imipenem alone: R
  susceptibility category, imipenem in combination with GN123: (S)
[1]; Table 20, isolates PA19-PA24
  susceptibility category, imipenem alone: R
  susceptibility category, imipenem in combination with GN121: (S)
[1]
  susceptibility category, antibiotic alone: R
[1]; isolate PA19, imipenem + GN121
  MIC Combination: 1 µg/mL
[1]; isolate PA19, imipenem + GN123
  MIC Combination: 0.5 µg/mL
[1]; isolate PA20, imipenem + GN121
  MIC Combination: 0.5 µg/mL
[1]; isolate PA20, imipenem + GN123
  MIC Combination: 1 µg/mL
[1]; isolate PA21, imipenem + GN121
  MIC Combination: 1 µg/mL
[1]; isolate PA21, imipenem + GN123
  MIC Combination: 0.5 µg/mL
[1]; isolate PA22, imipenem + GN121
  MIC Combination: 2 µg/mL
[1]; isolate PA22, imipenem + GN123
  MIC Combination: 2 µg/mL
[1]; isolate PA23, imipenem + GN123
  MIC Combination: 0.25 µg/mL
[1]; isolate PA24, imipenem + GN121
  MIC Combination: 1 µg/mL
[1]; isolate PA24, imipenem + GN123
  MIC Combination: 2 µg/mL
[1]; isolate WC-452, imipenem + GN123
  MIC Combination: 1 µg/mL

## C[C@@H](O)[C@H]1C(=O)N2C(C(=O)O)=C(S[C@@H]3CN[C@H](C(=O)N(C)C)C3)[C@H](C)[C@H]12 [Meropenem, meropenem]
[1]; [3]
  susceptibility category, meropenem alone: R
  susceptibility category, meropenem in combination with GN123: (S)
[1]; Table 21, isolates PA19-PA24 and WC-452
  susceptibility category, meropenem alone: R
[1]
  susceptibility category, antibiotic alone: R
[1]; isolate PA19, meropenem + GN121
  MIC Combination: 1 µg/mL
[1]; isolate PA19, meropenem + GN123
  MIC Combination: 0.5 µg/mL
[1]; isolate PA20, meropenem + GN121
  MIC Combination: 1 µg/mL
[1]; isolate PA20, meropenem + GN123
  MIC Combination: 0.5 µg/mL
[1]; isolate PA21, meropenem + GN121
  MIC Combination: 2 µg/mL
[1]; isolate PA21, meropenem + GN123
  MIC Combination: 1 µg/mL
[1]; isolate PA22, meropenem + GN121
  MIC Combination: 1 µg/mL
[1]; isolate PA22, meropenem + GN123
  MIC Combination: 1 µg/mL
[1]; isolate PA23, meropenem + GN121
  MIC Combination: 2 µg/mL
[1]; isolate PA23, meropenem + GN123
  MIC Combination: 0.5 µg/mL
[1]; isolate PA24, meropenem + GN121
  MIC Combination: 1 µg/mL
[1]; isolate PA24, meropenem + GN123
  MIC Combination: 2 µg/mL
[1]; isolate WC-452, meropenem + GN121
  MIC Combination: 1 µg/mL
[1]; isolate WC-452, meropenem + GN123
  MIC Combination: 1 µg/mL

## daptomycin
Staphylococcus aureus; 0.09% SURVANTA
  fold increase in MIC: 32 fold
Staphylococcus aureus; 0.19% SURVANTA
  fold increase in MIC: 32 fold
Staphylococcus aureus; 1.56% SURVANTA
  fold increase in MIC: 128 fold
Staphylococcus aureus; 3.15% SURVANTA
  fold increase in MIC: 128 fold

Reference: patent publication US20220411473A1, “LYSIN-ANTIMICROBIAL PEPTIDE (AMP) POLYPEPTIDE CONSTRUCTS, LYSINS, ISOLATED POLYNUCLEOTIDES ENCODING SAME AND USES THEREOF” (priority 2019, published 2022)
